Results published in patent publication US20240166652A1, “MODULATORS OF THE INTEGRATED STRESS PATHWAY” (Calico Life Sciences LLC, priority 2017, published 2024).

system: ATF4 luciferase reporter in HEK293T cells; experiment: ATF4-Luc assay (ATF4 luciferase reporter, tunicamycin-treated HEK293T cells); format: cell-based, human; details: Homo sapiens, HEK-293T; HEK293T cells carrying the ATF4 luciferase reporter, 1 μg/mL tunicamycin, 7 hours

SMILES | EC50
COCc1cccc(OCC(=O)NC23CCC(NC(=O)COc4ccc(Cl)c(F)c4)(CC2)[C@@H](O)C3)c1 [Compound 777, 2-(4-chloro-3-fluorophenoxy)-N-[(2S)-2-hydroxy-4-{2-[3-(methoxymethyl)phenoxy]acetamido}bicyclo[2.2.2]octan-1-yl]acetamide] | 10 to 50 nM
O=C(COc1ccc(Cl)c(F)c1)NC12CCC(NC(=O)CCOc3ccc(Cl)c(F)c3)(CC1)[C@@H](O)C2 [Compound 650, 3-(4-chloro-3-fluorophenoxy)-N-{(2S)-4-[2-(4-chloro-3-fluorophenoxy)acetamido]-2-hydroxybicyclo[2.2.2]octan-1-yl}propanamide] | < 10 nM
O=C(COc1ccc(Cl)c(F)c1)NC12CCC(NCCCOc3ccc(Cl)c(F)c3)(CC1)[C@@H](O)C2 [Compound 703, 2-(4-chloro-3-fluorophenoxy)-N-[(3S)-4-{[3-(4-chloro-3-fluorophenoxy)propyl]amino}-3-hydroxybicyclo[2.2.2]octan-1-yl]acetamide] | < 10 nM
CCCC1CC2(NC(=O)COc3ccc(Cl)c(F)c3)CCC1(NC(=O)COc1ccc(Cl)c(F)c1)CC2 (stereo not drawn) [Compound 723, N,N′-(2-propylbicyclo[2.2.2]octane-1,4-diyl)bis[2-(4-chloro-3-fluorophenoxy)acetamide]] | 10 to 50 nM
Cc1cc(OCC(=O)NC23CC(NC(=O)COc4ccc(Cl)c(F)c4)(C2)C3)cnc1Cl [Compound 226, 2-(4-chloro-3-fluorophenoxy)-N-(3-{2-[(6-chloro-5-methylpyridin-3-yl)oxy]acetamido}bicyclo[1.1.1]pentan-1-yl)acetamide] | 10 to 50 nM
CN(C)c1ccc(CCOCC(=O)NC23CC(NC(=O)COc4ccc(Cl)c(F)c4)(C2)C3)cc1 [Compound 143, 2-(4-chloro-3-fluorophenoxy)-N-[3-(2-{2-[4-(dimethylamino)phenyl]ethoxy}-acetamido)bicyclo[1.1.1]pentan-1-yl]acetamide] | > 2000 nM
O=C(COCc1ccccc1)NC12CC(NC(=O)COc3ccc(Cl)c(F)c3)(C1)C2 [Compound 207, 2-(benzyloxy)-N-{3-[2-(4-chloro-3-fluorophenoxy)acetamido]-bicyclo[1.1.1]pentan-1-yl}acetamide] | 50 to 250 nM
O=C(COc1ccc(F)c(Cl)c1)NC12CCC(NC(=O)COc3ccc(F)c(Cl)c3)(CC1)[C@@H](O)C2 [Compound 588, N,N′-[(2S)-2-hydroxybicyclo[2.2.2]octane-1,4-diyl]bis[2-(3-chloro-4-fluorophenoxy)acetamide]] | < 10 nM
O=C(COc1ccc(Cl)c(F)c1)NC12CC(NC(=O)Cc3noc4ccccc34)(C1)C2 [Compound 360, 2-(1,2-benzoxazol-3-yl)-N-{3-[2-(4-chloro-3-fluorophenoxy)acetamido]bicyclo[1.1.1]pentan-1-yl}acetamide] | > 2000 nM
CS(=O)(=O)c1ccc(OCC(=O)NC23CCC(NC(=O)COc4ccc(Cl)c(F)c4)(CC2)[C@@H](O)C3)cc1 [Compound 476, 2-(4-chloro-3-fluorophenoxy)-N-[(2S)-2-hydroxy-4-{2-[4-(methanesulfonyl)phenoxy]acetamido}bicyclo[2.2.2]octan-1-yl] acetamide] | 50 to 250 nM
O=C(COc1ccc(Cl)c(F)c1)NC12CC(NC(=O)COc3ccnn3C3CC3)(C1)C2 [Compound 371, 2-(4-chloro-3-fluorophenoxy)-N-(3-{2-[(1-cyclopropyl-1H-pyrazol-5-yl)oxy]acetamido}bicyclo[1.1.1]pentan-1-yl)acetamide] | 250 to 500 nM
CN(C)c1cccc(COCC(=O)NC23CC(NC(=O)COc4ccc(Cl)c(F)c4)(C2)C3)c1 [Compound 141] | 500 to 2000 nM
O=C(/C=C/c1cccnc1)NC12CC(NC(=O)COc3ccc(Cl)c(F)c3)(C1)C2 [Compound 352, (2E)-N-{3-[2-(4-chloro-3-fluorophenoxy)acetamido]bicyclo[1.1.1]pentan-1-yl}-3-(pyridin-3-yl)prop-2-enamide] | 500 to 2000 nM
O=C(CCCOc1cccc(Cl)c1)NC12CC(NC(=O)COc3ccc(Cl)c(Cl)c3)(C1)C2 [Compound 168, 4-(3-chlorophenoxy)-N-{3-[2-(3,4-dichlorophenoxy)acetamido]-bicyclo[1.1.1]pentan-1-yl}butanamide] | 50 to 250 nM
N[C@H](CC(=O)NC12CC(NC(=O)COc3ccc(Cl)c(F)c3)(C1)C2)Cc1ccccc1 [Compound 810, (3S)-3-amino-N-{3-[2-(4-chloro-3-fluorophenoxy)acetamido]bicyclo[1.1.1]pentan-1-yl}-4-phenylbutanamide] | > 2000 nM
O=C(COc1ccc(Cl)c(F)c1)NC12CCC(OCc3ccccc3)(CC1)CC2O (stereo not drawn) [Compound 567, N-[4-(benzyloxy)-2-hydroxybicyclo[2.2.2]octan-1-yl]-2-(4-chloro-3-fluorophenoxy)acetamide] | 500 to 2000 nM
O=C(COc1ccc(Cl)c(F)c1)NC12CCC(NC(=O)NCc3ccc(Cl)c(F)c3)(CC1)C[C@@H]2O [Compound 576, 2-(4-chloro-3-fluorophenoxy)-N-[(2S)-4-({[(4-chloro-3-fluorophenyl)methyl]carbamoyl}amino)-2-hydroxybicyclo[2.2.2]octan-1-yl]acetamide] | 10 to 50 nM

SMILES | EC50
O=C(COc1ccc(F)c(C(F)(F)F)c1)NC12CCC(NC(=O)COc3ccc(Cl)cc3)(CC1)[C@@H](O)C2 [Compound 846, 2-(4-chlorophenoxy)-N-[(2S)-4-{2-[4-fluoro-3-(trifluoromethyl)phenoxy]acetamido}-2-hydroxybicyclo[2.2.2]octan-1-yl]acetamide] | < 10 nM
O=C(COc1ccc(F)c(F)c1)NC12CCC(NC(=O)COc3ccc(Cl)c(F)c3)(CC1)C(O)C2 (stereo not drawn) [Compound 329, 2-(4-chloro-3-fluorophenoxy)-N-{4-[2-(3,4-difluorophenoxy)acetamido]-2-hydroxybicyclo[2.2.2]octan-1-yl}acetamide] | < 10 nM
N#Cc1cc(OCC(=O)NC23CC(NC(=O)COc4ccc(Cl)c(F)c4)(C2)C3)ccn1 [Compound 277, 2-(4-chloro-3-fluorophenoxy)-N-(3-{2-[(2-cyanopyridin-4-yl)oxy]acetamido}bicyclo[1.1.1]pentan-1-yl)acetamide] | 250 to 500 nM
O=C(COc1ccc(Cl)c(F)c1)NC12CCC(NC(=O)Oc3ccc(Cl)cc3)(CC1)C(O)C2 (stereo not drawn) [Compound 436, 4-chlorophenyl {4-[2-(4-chloro-3-fluorophenoxy)acetamido]-2-hydroxybicyclo[2.2.2]octan-1-yl}carbamate] | 50 to 250 nM
O=C(COc1cc(F)c2cn[nH]c2c1)NC12CCC(NC(=O)COc3ccc(Cl)c(F)c3)(CC1)[C@@H](O)C2 [Compound 727, 2-(4-chloro-3-fluorophenoxy)-N-[(2S)-4-{2-[(4-fluoro-1H-indazol-6-yl)oxy]acetamido}-2-hydroxybicyclo[2.2.2]octan-1-yl]acetamide] | < 10 nM
O=C(COc1ccc(Cl)c(F)c1)NC12CC(NCc3ccccc3)(C1)C2 [Compound 551, N-[3-(benzylamino)bicyclo[1.1.1]pentan-1-yl]-2-(4-chloro-3-fluorophenoxy)acetamide] | 500 to 2000 nM
COc1cncc(OCC(=O)NC23CCC(NC(=O)COc4ccc(Cl)c(F)c4)(CC2)[C@@H](O)C3)c1 [Compound 675, 2-(4-chloro-3-fluorophenoxy)-N-[(2S)-2-hydroxy-4-{2-[(5-methoxypyridin-3-yl)oxy]acetamido}bicyclo[2.2.2]octan-1-yl]acetamide] | 10 to 50 nM
O=C(COc1ccc(Cl)c(F)c1)NC12CC(NS(=O)(=O)CCOc3ccc(F)cc3)(C1)C2 [Compound 489, 2-(4-chloro-3-fluorophenoxy)-N-(3-{[2-(4-fluorophenoxy)ethanesulfonyl]amino}bicyclo[1.1.1]pentan-1-yl)acetamide] | 500 to 2000 nM
CC(C)(Oc1ccc(Cl)cc1)C(=O)NC12CCC(NC(=O)COc3ccc(Cl)c(F)c3)(CC1)C[C@@H]2O [Compound 453, N-{(2S)-4-[2-(4-chloro-3-fluorophenoxy)acetamido]-2-hydroxybicyclo[2.2.2]octan-1-yl}-2-(4-chlorophenoxy)-2-methylpropanamide] | 10 to 50 nM
Cc1cc(F)ccc1OCC(=O)NC12CCC(NC(=O)COc3ccc(Cl)c(F)c3)(CC1)[C@@H](O)C2 [Compound 755, 2-(4-chloro-3-fluorophenoxy)-N-{(2S)-4-[2-(4-fluoro-2-methylphenoxy)acetamido]-2-hydroxybicyclo[2.2.2]octan-1-yl}acetamide] | < 10 nM
N#CC(COc1ccc(Cl)cc1)NC12CCC(NC(=O)COc3ccc(Cl)c(F)c3)(CC1)[C@@H](O)C2 (stereo partly drawn) [Compound 699, 2-(4-chloro-3-fluorophenoxy)-N-[(2S)-4-{[2-(4-chlorophenoxy)-1-cyanoethyl]amino}-2-hydroxybicyclo[2.2.2]octan-1-yl]acetamide] | 10 to 50 nM
O=C(COc1ccc(Cl)c(F)c1)NC12CCC(NC(=O)CNc3ccc(Cl)cc3)(CC1)[C@@H](O)C2 [Compound 657, 2-(4-chloroanilino)-N-{(2S)-4-[2-(4-chloro-3-fluorophenoxy)acetamido]-2-hydroxybicyclo[2.2.2]octan-1-yl}acetamide] | 50 to 250 nM
COC(=O)c1cc(OCC(=O)NC23CC(NC(=O)COc4ccc5c(c4)OC(F)(F)O5)(C2)C3)ccc1Cl [Compound 275, methyl 2-chloro-5-{2-1(3-{2-[(2,2-difluoro-2H-1,3-benzodioxol-5-yl)oxy]acetamido}bicyclo[1.1.1]pentan-1-yl)aminol-2-oxoethoxy}benzoate] | 500 to 2000 nM
O=C(/C=C/c1ccc(Cl)cc1)NC12CC(NC(=O)COc3ccc(Cl)c(F)c3)(C1)C2 [Compound 294, (2E)-N-{3-[2-(4-chloro-3-fluorophenoxy)acetamido]bicyclo[1.1.1]pentan-1-yl}-3-(4-chlorophenyl)prop-2-enamide] | 10 to 50 nM
CN1C(=O)C2(NC(=O)COc3ccc(Cl)c(Cl)c3)CCC1(NC(=O)COc1ccc(Cl)c(Cl)c1)CC2 [Compound 599, N,N-(2-methyl-3-oxo-2-azabicyclo[2.2.2]octane-1,4-diyl)bis[2-(3,4-dicholorophenoxy)acetamide]] | 10 to 50 nM
Cc1cc(COCC(=O)NC23CC(NC(=O)COc4ccc(Cl)c(F)c4)(C2)C3)cc(C)n1 [Compound 282, 2-(4-chloro-3-fluorophenoxy)-N-(3-{2-[(2,6-dimethylpyridin-4-yl)methoxy]acetamido}bicyclo[1.1.1]pentan-1-yl)acetamide] | > 2000 nM
